Test results published in ChEMBL document CHEMBL2010722, “Structure-activity relationship study of beta-carboline derivatives as haspin kinase inhibitors” (Bioorg Med Chem Lett, 2012).

Legend:
[1] = biological target: Tyrosine-protein kinase ABL2 (Homo sapiens) (UniProt P42684); experiment: Inhibition of ARG at 10 uM
[2] = biological target: Ephrin type-A receptor 1 (Homo sapiens) (UniProt P21709); experiment: Inhibition of EPHA1 at 10 uM
[3] = biological target: Ephrin type-A receptor 2 (Homo sapiens) (UniProt P29317); experiment: Inhibition of EPHA2 at 10 uM
[4] = biological target: Ephrin type-A receptor 5 (Homo sapiens) (UniProt P54756); experiment: Inhibition of EPHA5 at 10 uM
[5] = biological target: Ephrin type-B receptor 1 (Homo sapiens) (UniProt P54762); experiment: Inhibition of EPHB1 at 10 uM
[6] = biological target: Tyrosine-protein kinase Fer (Homo sapiens) (UniProt P16591); experiment: Inhibition of FER at 10 uM
[7] = tested on: Fibroblast growth factor receptor 3 (Homo sapiens), P22607 [K650M]; experiment: Inhibition of FGFR3 K650M mutant at 10 uM
[8] = biological target: Vascular endothelial growth factor receptor 1 (Homo sapiens) (UniProt P17948); experiment: Inhibition of FLT1 at 10 uM
[9] = biological target: Macrophage colony-stimulating factor 1 receptor (Homo sapiens) (UniProt P07333); experiment: Inhibition of FMS at 10 uM
[10] = biological target: Receptor tyrosine-protein kinase erbB-4 (Homo sapiens) (UniProt Q15303); experiment: Inhibition of HER4 at 10 uM
[11] = biological target: Tyrosine-protein kinase ITK/TSK (Homo sapiens) (UniProt Q08881); experiment: Inhibition of ITK at 10 uM
[12] = biological target: Tyrosine-protein kinase JAK1 (Homo sapiens) (UniProt P23458); experiment: Inhibition of JAK1 at 10 uM
[13] = biological target: Vascular endothelial growth factor receptor 2 (Homo sapiens) (UniProt P35968); experiment: Inhibition of KDR at 10 uM
[14] = tested on: Mast/stem cell growth factor receptor Kit (Homo sapiens), P10721 [D816V]; experiment: Inhibition of KIT D816V mutant at 10 uM
[15] = biological target: Platelet-derived growth factor receptor beta (Homo sapiens) (UniProt P09619); experiment: Inhibition of PDGFRb at 10 uM
[16] = biological target: Protein-tyrosine kinase 2-beta (Homo sapiens) (UniProt Q14289); experiment: Inhibition of PYK2 at 10 uM
[17] = biological target: Proto-oncogene tyrosine-protein kinase receptor Ret (Homo sapiens) (UniProt P07949); experiment: Inhibition of RET at 10 uM
[18] = biological target: Tyrosine-protein kinase Yes (Homo sapiens) (UniProt P07947); experiment: Inhibition of YES at 10 uM
[19] = biological target: RAC-beta serine/threonine-protein kinase (Homo sapiens) (UniProt P31751); experiment: Inhibition of AKT2 at 10 uM
[20] = biological target: RAC-gamma serine/threonine-protein kinase (Homo sapiens) (UniProt Q9Y243); experiment: Inhibition of AKT3 at 10 uM
[21] = biological target: AMP-activated protein kinase (AMPK) alpha-1/beta-1/gamma-1 (Homo sapiens) (UniProt P54619+Q9Y478+Q13131); experiment: Inhibition of AMPKalpha1/beta1/gamma1 at 10 uM; assay type: protein-complex assay
[22] = biological target: Serine/threonine-protein kinase BRSK2 (Homo sapiens) (UniProt Q8IWQ3); experiment: Inhibition of BRSK2 at 10 uM
[23] = biological target: Calcium/calmodulin-dependent protein kinase type II subunit gamma (Homo sapiens) (UniProt Q13555); experiment: Inhibition of CaMK2g at 10 uM
[24] = biological target: Calcium/calmodulin-dependent protein kinase type IV (Homo sapiens) (UniProt Q16566); experiment: Inhibition of CaMK4 at 10 uM
[25] = biological target: Cyclin-dependent kinase 2/cyclin E1 (Homo sapiens) (UniProt P24864+P24941); experiment: Inhibition of CDK2-Cyclin E1 at 10 uM; assay type: protein-complex assay
[26] = biological target: Dual specificity tyrosine-phosphorylation-regulated kinase 1B (Homo sapiens) (UniProt Q9Y463); experiment: Inhibition of DYRK1B at 10 uM
[27] = biological target: Dual specificity tyrosine-phosphorylation-regulated kinase 2 (Homo sapiens) (UniProt Q92630); experiment: Inhibition of DYRK2 at 10 uM
[28] = biological target: Mitogen-activated protein kinase 7 (Homo sapiens) (UniProt Q13164); experiment: Inhibition of Erk5 at 10 uM
[29] = biological target: Glycogen synthase kinase-3 beta (Homo sapiens) (UniProt P49841); experiment: Inhibition of GSK3b at 10 uM
[30] = biological target: Inhibitor of nuclear factor kappa-B kinase subunit epsilon (Homo sapiens) (UniProt Q14164); experiment: Inhibition of IKKe at 10 uM
[31] = biological target: Mitogen-activated protein kinase kinase kinase 1 (Homo sapiens) (UniProt Q13233); experiment: Inhibition of MAP3K1 at 10 uM
[32] = biological target: Serine/threonine-protein kinase MARK2 (Homo sapiens) (UniProt Q7KZI7); experiment: Inhibition of MARK2 at 10 uM
[33] = biological target: Serine/threonine-protein kinase MRCK alpha (Homo sapiens) (UniProt Q5VT25); experiment: Inhibition of MRCKa at 10 uM
[34] = biological target: Serine/threonine-protein kinase 3 (Homo sapiens) (UniProt Q13188); experiment: Inhibition of MST2 at 10 uM
[35] = biological target: NUAK family SNF1-like kinase 1 (Homo sapiens) (UniProt O60285); experiment: Inhibition of NuaK1 at 10 uM
[36] = biological target: Mitogen-activated protein kinase 14 (Homo sapiens) (UniProt Q16539); experiment: Inhibition of p38alpha at 10 uM
[37] = biological target: Serine/threonine-protein kinase PAK 6 (Homo sapiens) (UniProt Q9NQU5); experiment: Inhibition of PAK6 at 10 uM
[38] = biological target: Lymphokine-activated killer T-cell-originated protein kinase (Homo sapiens) (UniProt Q96KB5); experiment: Inhibition of PBK at 10 uM
[39] = biological target: Serine/threonine-protein kinase pim-3 (Homo sapiens) (UniProt Q86V86); experiment: Inhibition of PIM3 at 10 uM
[40] = biological target: Serine/threonine-protein kinase D2 (Homo sapiens) (UniProt Q9BZL6); experiment: Inhibition of PKD2 at 10 uM
[41] = biological target: Ribosomal protein S6 kinase alpha-2 (Homo sapiens) (UniProt Q15349); experiment: Inhibition of RSK3 N-terminal at 10 uM
[42] = biological target: Ribosomal protein S6 kinase alpha-6 (Homo sapiens) (UniProt Q9UK32); experiment: Inhibition of RSK4 N-terminal at 10 uM
[43] = biological target: Serine/threonine-protein kinase Sgk3 (Homo sapiens) (UniProt Q96BR1); experiment: Inhibition of SGK3 at 10 uM
[44] = biological target: Myosin light chain kinase 2, skeletal/cardiac muscle (Homo sapiens) (UniProt Q9H1R3); experiment: Inhibition of skMLCK at 10 uM
[45] = biological target: Dual specificity protein kinase TTK (Homo sapiens) (UniProt P33981); experiment: Inhibition of TTK at 10 uM
[46] = biological target: Sphingosine kinase 1 (Homo sapiens) (UniProt Q9NYA1); experiment: Inhibition of SPHK1 at 10 uM

Sequence of Tyrosine-protein kinase Fer (Homo sapiens) (P16591 whole entry, looked up): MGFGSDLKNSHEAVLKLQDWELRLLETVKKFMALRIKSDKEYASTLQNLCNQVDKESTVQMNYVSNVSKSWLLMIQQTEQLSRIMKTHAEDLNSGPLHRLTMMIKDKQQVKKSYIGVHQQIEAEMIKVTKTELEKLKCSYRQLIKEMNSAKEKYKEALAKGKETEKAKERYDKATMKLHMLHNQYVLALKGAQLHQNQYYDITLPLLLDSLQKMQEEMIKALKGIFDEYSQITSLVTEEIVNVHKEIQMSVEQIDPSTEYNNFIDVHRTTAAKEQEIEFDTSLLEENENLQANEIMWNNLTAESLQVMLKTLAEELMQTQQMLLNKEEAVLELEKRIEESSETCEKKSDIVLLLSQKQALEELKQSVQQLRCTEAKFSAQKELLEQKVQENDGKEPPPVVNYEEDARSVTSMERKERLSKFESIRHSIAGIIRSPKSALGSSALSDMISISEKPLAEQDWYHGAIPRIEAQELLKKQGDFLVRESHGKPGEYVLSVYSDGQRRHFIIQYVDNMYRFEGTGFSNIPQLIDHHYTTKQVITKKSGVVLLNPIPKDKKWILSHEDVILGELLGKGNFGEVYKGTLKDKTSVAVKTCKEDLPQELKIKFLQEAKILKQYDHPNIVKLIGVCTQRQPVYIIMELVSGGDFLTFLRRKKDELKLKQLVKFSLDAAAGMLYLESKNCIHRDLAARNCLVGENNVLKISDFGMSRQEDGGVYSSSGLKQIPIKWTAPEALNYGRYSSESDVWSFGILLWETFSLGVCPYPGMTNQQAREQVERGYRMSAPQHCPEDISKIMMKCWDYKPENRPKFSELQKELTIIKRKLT
Sequence of Ribosomal protein S6 kinase alpha-2 (Homo sapiens) (Q15349 whole entry): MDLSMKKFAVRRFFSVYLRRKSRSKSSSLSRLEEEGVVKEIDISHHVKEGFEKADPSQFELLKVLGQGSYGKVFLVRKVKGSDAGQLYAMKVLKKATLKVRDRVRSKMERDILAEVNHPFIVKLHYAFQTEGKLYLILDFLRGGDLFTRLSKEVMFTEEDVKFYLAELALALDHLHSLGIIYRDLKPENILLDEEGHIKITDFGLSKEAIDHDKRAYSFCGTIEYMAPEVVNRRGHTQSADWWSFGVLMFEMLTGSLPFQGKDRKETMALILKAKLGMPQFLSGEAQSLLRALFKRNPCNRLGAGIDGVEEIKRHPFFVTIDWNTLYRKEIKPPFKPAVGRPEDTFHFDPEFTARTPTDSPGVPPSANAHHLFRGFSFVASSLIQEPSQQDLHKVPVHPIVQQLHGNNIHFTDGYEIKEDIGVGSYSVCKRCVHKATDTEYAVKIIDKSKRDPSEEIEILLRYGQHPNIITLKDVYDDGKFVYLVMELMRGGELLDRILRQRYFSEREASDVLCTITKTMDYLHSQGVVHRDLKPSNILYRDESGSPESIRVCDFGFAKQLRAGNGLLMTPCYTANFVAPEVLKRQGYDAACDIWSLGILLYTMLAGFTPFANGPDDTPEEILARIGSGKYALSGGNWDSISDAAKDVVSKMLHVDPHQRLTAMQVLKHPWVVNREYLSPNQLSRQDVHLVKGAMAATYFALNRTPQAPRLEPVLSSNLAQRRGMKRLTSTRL
Sequence of RAC-gamma serine/threonine-protein kinase (Homo sapiens) (Q9Y243 whole entry): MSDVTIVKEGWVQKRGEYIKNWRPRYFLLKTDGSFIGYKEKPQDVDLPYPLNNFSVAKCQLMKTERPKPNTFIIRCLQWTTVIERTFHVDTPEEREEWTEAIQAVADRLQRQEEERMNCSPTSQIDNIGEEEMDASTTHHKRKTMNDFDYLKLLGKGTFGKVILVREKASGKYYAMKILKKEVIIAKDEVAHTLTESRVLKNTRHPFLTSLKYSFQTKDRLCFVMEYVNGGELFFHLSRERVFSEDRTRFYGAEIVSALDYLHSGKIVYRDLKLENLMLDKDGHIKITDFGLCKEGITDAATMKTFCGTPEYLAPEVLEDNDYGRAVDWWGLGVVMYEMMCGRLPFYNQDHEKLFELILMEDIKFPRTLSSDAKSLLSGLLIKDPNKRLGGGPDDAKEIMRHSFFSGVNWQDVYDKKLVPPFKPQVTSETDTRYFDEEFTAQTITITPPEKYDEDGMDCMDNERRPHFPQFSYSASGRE
Sequence of Tyrosine-protein kinase JAK1 (Homo sapiens) (P23458 whole entry): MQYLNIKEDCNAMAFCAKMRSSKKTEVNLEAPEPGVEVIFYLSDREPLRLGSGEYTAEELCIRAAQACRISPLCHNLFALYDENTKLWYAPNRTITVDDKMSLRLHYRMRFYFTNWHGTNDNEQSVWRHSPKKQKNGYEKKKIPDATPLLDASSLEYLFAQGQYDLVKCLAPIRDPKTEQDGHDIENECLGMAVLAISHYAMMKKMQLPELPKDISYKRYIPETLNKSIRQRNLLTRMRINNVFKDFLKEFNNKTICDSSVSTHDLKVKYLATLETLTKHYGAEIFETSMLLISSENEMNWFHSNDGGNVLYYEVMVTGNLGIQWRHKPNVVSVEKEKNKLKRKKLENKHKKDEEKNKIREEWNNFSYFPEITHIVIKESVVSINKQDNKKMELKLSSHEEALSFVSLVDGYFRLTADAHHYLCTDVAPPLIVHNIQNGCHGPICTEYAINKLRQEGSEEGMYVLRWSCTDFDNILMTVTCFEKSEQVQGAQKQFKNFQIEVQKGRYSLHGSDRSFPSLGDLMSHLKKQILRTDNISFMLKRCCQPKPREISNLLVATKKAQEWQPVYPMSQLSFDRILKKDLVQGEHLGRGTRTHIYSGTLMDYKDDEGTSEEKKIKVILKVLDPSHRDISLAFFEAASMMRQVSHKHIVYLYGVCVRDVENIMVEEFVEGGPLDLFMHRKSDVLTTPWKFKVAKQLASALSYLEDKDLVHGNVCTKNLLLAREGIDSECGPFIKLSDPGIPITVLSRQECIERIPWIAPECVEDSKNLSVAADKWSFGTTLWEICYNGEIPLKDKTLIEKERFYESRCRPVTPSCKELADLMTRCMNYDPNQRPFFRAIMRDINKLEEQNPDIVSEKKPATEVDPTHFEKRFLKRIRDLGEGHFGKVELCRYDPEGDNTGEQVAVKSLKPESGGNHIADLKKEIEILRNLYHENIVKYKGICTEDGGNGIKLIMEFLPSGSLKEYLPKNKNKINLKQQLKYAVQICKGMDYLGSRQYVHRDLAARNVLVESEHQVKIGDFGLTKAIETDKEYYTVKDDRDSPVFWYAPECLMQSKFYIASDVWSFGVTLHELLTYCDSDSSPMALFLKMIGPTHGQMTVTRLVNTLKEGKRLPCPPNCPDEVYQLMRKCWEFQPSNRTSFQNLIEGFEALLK
Sequence of Protein-tyrosine kinase 2-beta (Homo sapiens) (Q14289 whole entry, looked up): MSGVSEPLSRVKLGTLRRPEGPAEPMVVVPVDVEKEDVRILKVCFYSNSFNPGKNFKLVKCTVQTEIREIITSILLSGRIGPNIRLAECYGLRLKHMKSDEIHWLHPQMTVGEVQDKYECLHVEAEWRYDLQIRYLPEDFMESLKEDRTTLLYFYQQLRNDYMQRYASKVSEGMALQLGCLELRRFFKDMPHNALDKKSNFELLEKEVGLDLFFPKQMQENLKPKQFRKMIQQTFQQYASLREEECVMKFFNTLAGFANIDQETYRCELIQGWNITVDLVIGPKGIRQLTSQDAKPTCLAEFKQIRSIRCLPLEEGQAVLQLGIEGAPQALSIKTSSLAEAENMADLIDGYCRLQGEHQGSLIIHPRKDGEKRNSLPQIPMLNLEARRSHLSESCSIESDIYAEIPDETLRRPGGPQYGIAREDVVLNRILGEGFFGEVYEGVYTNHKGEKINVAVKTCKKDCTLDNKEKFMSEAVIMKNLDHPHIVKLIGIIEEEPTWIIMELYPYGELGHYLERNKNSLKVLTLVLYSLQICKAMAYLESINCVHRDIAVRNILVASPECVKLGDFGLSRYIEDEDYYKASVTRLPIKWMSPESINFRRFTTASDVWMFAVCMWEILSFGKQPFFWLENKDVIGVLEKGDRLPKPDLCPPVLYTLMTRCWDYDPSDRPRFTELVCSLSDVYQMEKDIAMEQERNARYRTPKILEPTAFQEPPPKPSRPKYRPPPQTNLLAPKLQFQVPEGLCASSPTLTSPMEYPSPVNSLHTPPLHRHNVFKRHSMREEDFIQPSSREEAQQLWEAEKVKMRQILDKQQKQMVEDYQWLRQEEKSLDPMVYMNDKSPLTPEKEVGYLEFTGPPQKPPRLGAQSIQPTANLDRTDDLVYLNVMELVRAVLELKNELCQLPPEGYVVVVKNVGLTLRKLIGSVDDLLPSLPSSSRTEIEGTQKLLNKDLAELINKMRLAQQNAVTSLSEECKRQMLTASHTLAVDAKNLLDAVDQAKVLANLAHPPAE
Sequence of Serine/threonine-protein kinase Sgk3 (Homo sapiens) (Q96BR1 whole entry): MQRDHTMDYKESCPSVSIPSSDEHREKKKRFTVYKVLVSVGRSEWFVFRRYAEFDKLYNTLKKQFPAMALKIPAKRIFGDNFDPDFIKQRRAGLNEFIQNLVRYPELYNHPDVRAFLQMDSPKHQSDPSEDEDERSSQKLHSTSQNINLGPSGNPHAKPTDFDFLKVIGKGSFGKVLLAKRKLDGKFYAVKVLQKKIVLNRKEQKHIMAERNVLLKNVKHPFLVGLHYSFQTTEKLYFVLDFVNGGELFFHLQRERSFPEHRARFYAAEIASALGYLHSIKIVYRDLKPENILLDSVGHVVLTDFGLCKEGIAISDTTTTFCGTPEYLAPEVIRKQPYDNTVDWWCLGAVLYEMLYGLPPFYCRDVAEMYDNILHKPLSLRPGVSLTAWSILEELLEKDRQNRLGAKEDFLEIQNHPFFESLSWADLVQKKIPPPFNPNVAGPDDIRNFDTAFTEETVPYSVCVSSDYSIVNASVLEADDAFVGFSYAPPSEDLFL
Sequence of Mitogen-activated protein kinase 14 (Homo sapiens) (Q16539 whole entry): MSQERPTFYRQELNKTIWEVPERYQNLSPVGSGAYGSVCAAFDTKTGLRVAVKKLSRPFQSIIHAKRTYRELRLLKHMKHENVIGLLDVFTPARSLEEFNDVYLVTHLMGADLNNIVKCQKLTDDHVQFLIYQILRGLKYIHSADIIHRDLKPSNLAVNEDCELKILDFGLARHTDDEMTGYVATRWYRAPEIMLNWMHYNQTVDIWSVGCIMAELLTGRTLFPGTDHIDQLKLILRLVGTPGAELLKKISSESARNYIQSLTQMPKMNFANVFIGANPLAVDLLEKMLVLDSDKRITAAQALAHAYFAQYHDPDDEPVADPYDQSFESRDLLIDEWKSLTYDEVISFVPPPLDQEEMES

In the case of COc1ccc2c3ccnc(C(F)(F)F)c3n(CCCCN)c2c1, the inhibition [1] is reported as 0%, the inhibition [2] is reported as 4% and the inhibition [3] is reported as 0%. For the same molecule, the inhibition [4] was 4%, the inhibition [5] was 0% and the inhibition [6] was 8%. It also gave an inhibition [7] of 0%, an inhibition [8] of 8% and an inhibition [9] of 6%. The inhibition [10] was 25%, the inhibition [11] was 7% and the inhibition [12] was 0%. The inhibition [13] was 2%, the inhibition [14] was 32% and the inhibition [15] was 73%. The inhibition [16] was 0%, the inhibition [17] was 11% and the inhibition [18] was 6%. For the same molecule, the inhibition [19] was 4%, the inhibition [20] was 12% and the inhibition [21] was 16%. It also gave an inhibition [22] of 30%, an inhibition [23] of 78% and an inhibition [24] of 13%. It also gave an inhibition [25] of 31%, an inhibition [26] of 98% and an inhibition [27] of 86%. It also gave an inhibition [28] of 21%, an inhibition [29] of 27% and an inhibition [30] of 0%. It also gave an inhibition [31] of 0%, an inhibition [32] of 52% and an inhibition [33] of 18%. For the same molecule, the inhibition [34] was 3%, the inhibition [35] was 30% and the inhibition [36] was 1%. For the same molecule, the inhibition [37] was 13%, the inhibition [38] was 12% and the inhibition [39] was 89%. For the same molecule, the inhibition [40] was 84%, the inhibition [41] was 36% and the inhibition [42] was 23%. For the same molecule, the inhibition [43] was 13%, the inhibition [44] was 34% and the inhibition [45] was 6%. The inhibition [46] was 0%.
